IC50 data for 15 compounds are collected here from patent US8178538B2, “Pyridazinones” (Hoffmann-La Roche Inc., priority 2008, dated 2012).

This assay deals with T1, PDE10A2 (Homo sapiens, UniProt Q9Y233).
T1 construct: residues serine 449 to aspartate 789; His6 (H6) with thrombin cleavage site (N, cleaved yes); made in house; host or cells: E. coli BL21(DE3) pLysS
The assay can be described thus: PDE10A2 inhibition, Scintillation Proximity Assay (SPA). The format is biochemical. The following applies: catalytic domain of human PDE10A2 (S449-D789), 0.25 nM enzyme, 50 nM cGMP + 50 nM [3H]-cGMP, 30 minutes at room temperature. As to the method:
The following tests were carried out in order to determine the activity of the compounds of the present invention. PDE10 activity of the compounds of the present invention is determined using a Scintillation Proximity Assay (SPA)-based method similar to the one previously described (Fawcett, L. et al., Proc Natl Acad Sci USA (2000) 97(7):3702-3707).
PDE10A1 and PDE10A2 are two splice variants of PDE10A. There are these 2 splice variants known, which differ in the N-terminal part of the protein. The catalytic domains of PDE10A1 and PDE10A2 are identical. The assay for PDE10A2 described below is therefore also representative for PDE10A1 and also for PDE10A in general.
The PDE10A2 assay was performed in a two step procedure in 96-well micro titer plates. The reaction mixture of 80 μl contained 20 mM HEPES/10 mM MgCl2/[…] (pH 7.5), 50 nM cGMP (Sigma) and 50 nM [^3H]-cGMP (GE Healthcare), 0.25 nM PDE10A2 with or without a specific test compound. A range of concentrations of the potential inhibitor was used to generate data for calculating the concentration of inhibitor resulting in 50% of the effect (e.g. IC50, the concentration of the competitor inhibiting PDE10A2 activity 50%). Non-specific activity was tested without the enzyme. The reaction was initiated by addition of the substrate solution (cGMP and [^3H]-cGMP) and allowed to progress for 30 minutes at room temperature. The reaction was terminated by transferring 50 μl of the reaction mixture into an OptiPlate (Perkin Elmer) containing 25 μl of YSi-SPA scintillation beads (GE Healthcare) in 18 mM zinc sulphate solution (stop reagent). After 1 h under shaking, the plate was centrifuged one minute at 1000 rpm to allow beads to settle. Afterwards, radioactive counts were measured on a Perkin Elmer TopCount Scintillation plate reader.
The catalytic domain of human PDE10A2, residues serine 449 to aspartate 789, was amplified by PCR using cDNA (Origene) and the oligonucleotides 5′-GGGGACAAGTTT […]-3′ (SEQ ID NO. 1) (with AttB1 recombination site in bold and thrombin protease cleavage site in italics) and 5′-[…] GCTG-3′ (SEQ ID NO. 2) (with AttB2 recombination site in bold) which conferred Gateway recombination sites. The PCR product was used in a BP recombination reaction with pDONR221 to generate pENTR Thm-PDE10A2(S449-D789) which was DNA sequence verified and then used in an LR recombination reaction with a Gateway modified version of pET11a. The resulting expression vector, placT7.2H6-(gw1)-Thm-PDE10A2(S449-D789) was DNA sequence confirmed and transformed into E. coli strain BL21(DE3) pLysS and recombinant protein was produced in TB medium at 20° C. by induction to a final IPTG concentration of 0.5 mM at an optical density of 1.0 at 600 nm for 20 hours. About 30% of the protein was in the soluble fraction of the cell homogenate. The protein was purified using sequential chromatography on Ni-NTA and HiTrapQ/HiTrapS. After thrombin digest at room temperature a HiTrapChelating/HiTrap Benzamindin chromatography removed impurities, uncleaved protein and thrombin. Final purification of PDE10A2(S449-D789) was performed on a Superdex 75 size exclusion chromatography equilibrated with 25 mM HEPES pH 8.4, 0.15 M NaCl. The yield of pure protein was 2 mg/liter of culture volume is relatively low. The purity of the protein was >95%, monomeric and monodisperse as shown by SDS-PAGE, HPLC and analytical ultracentrifugation.

T1 sequence (Q9Y233 715-1055): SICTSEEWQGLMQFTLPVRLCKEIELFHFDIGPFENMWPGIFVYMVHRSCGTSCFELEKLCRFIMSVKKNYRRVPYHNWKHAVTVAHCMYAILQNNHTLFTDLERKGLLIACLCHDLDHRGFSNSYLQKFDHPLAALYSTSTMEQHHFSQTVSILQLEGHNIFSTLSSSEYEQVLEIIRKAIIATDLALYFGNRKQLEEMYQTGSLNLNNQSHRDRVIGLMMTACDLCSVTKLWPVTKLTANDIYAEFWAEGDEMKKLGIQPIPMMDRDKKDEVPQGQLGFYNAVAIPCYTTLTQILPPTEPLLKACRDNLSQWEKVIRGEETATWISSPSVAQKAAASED

One may read the IC50 as the concentration needed to halve the response being measured. `O=c1ccn(-c2ccccc2)nc1-c1ccnn1-c1ccccc1F` [Example 183, 3-[2-(2-Fluoro-phenyl)-2H-pyrazol-3-yl]-1-phenyl-1H-pyridazin-4-one]: the IC50 was determined as 0.047 µM.
Regarding `O=c1ccn(-c2ccc(OC(F)(F)F)cc2)nc1-c1ccnn1-c1ccnc2ccccc12` [Example 186, 3-(2-Quinolin-4-yl-2H-pyrazol-3-yl)-1-(4-trifluoromethoxy-phenyl)-1H-pyridazin-4-one], the IC50 amounted to 0.002 µM.
For `CS(=O)(=O)c1ccc(-n2ccc(=O)c(-c3ccnn3-c3cccc4cnccc34)n2)cc1` [Example 192, 3-(2-Isoquinolin-5-yl-2H-pyrazol-3-yl)-1-(4-methanesulfonyl-phenyl)-1H-pyridazin-4-one], the IC50 was found to be 0.013 µM.
In the case of `CCOc1cc(-n2nccc2-c2nn(-c3ccc(OC(F)(F)F)cc3)ccc2=O)ccn1` [Example 200, 3-[2-(2-Ethoxy-pyridin-4-yl)-2H-pyrazol-3-yl]-1-(4-trifluoromethoxy-phenyl)-1H-pyridazin-4-one], the IC50 amounted to 0.046 µM.
For `O=c1ccn(-c2cccc(OC(F)(F)F)c2)nc1-c1ccnn1-c1cccc2ncccc12` [Example 203, 3-(2-Quinolin-5-yl-2H-pyrazol-3-yl)-1-(3-trifluoromethoxy-phenyl)-1H-pyridazin-4-one], the half-inhibitory concentration (IC50) amounted to 0.013 µM.
Take `O=c1ccn(-c2cccc(OC(F)F)c2)nc1-c1ccnn1-c1cccc(Cl)c1` [Example 206, 3-[2-(3-Chloro-phenyl)-2H-pyrazol-3-yl]-1-(3-difluoromethoxy-phenyl)-1H-pyridazin-4-one]: the IC50 was 0.017 µM.
Regarding `N#Cc1cccc(-n2ccc(=O)c(-c3ccnn3-c3ccnc4ccccc34)n2)c1` [Example 207, 3-[4-Oxo-3-(2-quinolin-4-yl-2H-pyrazol-3-yl)-4H-pyridazin-1-yl]-benzonitrile], the IC50 amounted to 0.005 µM.
The result for `Cc1ccccc1-n1nccc1-c1nn(-c2ccc(C(F)(F)F)cc2)ccc1=O` [Example 216, 3-(2-o-Tolyl-2H-pyrazol-3-yl)-1-(4-trifluoromethyl-phenyl)-1H-pyridazin-4-one] reads 0.02 µM.
As for `O=c1ccn(-c2ccc(OC(F)(F)F)cc2)nc1-c1ccnn1-c1ccnc2ccc(Cl)cc12` [Example 224, 3-[2-(6-Chloro-quinolin-4-yl)-2H-pyrazol-3-yl]-1-(4-trifluoromethoxy-phenyl)-1H-pyridazin-4-one], the figure is 0.022 µM; as for `O=c1ccn(-c2ccc(S(=O)(=O)C(F)(F)F)cc2)nc1-c1ccnn1-c1ccccc1F` [Example 232, 3-[2-(2-Fluoro-phenyl)-2H-pyrazol-3-yl]-1-(4-trifluoromethanesulfonyl-phenyl)-1H-pyridazin-4-one], 0.012 µM; as for `O=c1ccn(-c2ccc(C(F)(F)F)cc2)nc1-c1ccnn1-c1ccc(Cl)c2ccccc12` [Example 237, 3-[2-(4-Chloro-naphthalen-1-yl)-2H-pyrazol-3-yl]-1-(4-trifluoromethyl-phenyl)-1H-pyridazin-4-one], 0.101 µM.
Regarding `O=c1ccn(-c2cccc(Cl)c2)nc1-c1ccnn1-c1ccc(Cl)c2ccccc12` [Example 244, 3-[2-(4-Chloro-naphthalen-1-yl)-2H-pyrazol-3-yl]-1-(3-chloro-phenyl)-1H-pyridazin-4-one], the IC50 stood at 0.046 µM.
As for `O=c1ccn(-c2ccc(OCC(F)(F)F)cc2)nc1-c1ccnn1-c1ccccc1F` [Example 255, 3-[2-(2-Fluoro-phenyl)-2H-pyrazol-3-yl]-1-[4-(2,2,2-trifluoro-ethoxy)-phenyl]-1H-pyridazin-4-one], the figure is 0.005 µM; as for `O=c1ccn(-c2ccc(OCC(F)(F)F)cc2)nc1-c1ccnn1-c1cccc(Cl)c1` [Example 257, 3-[2-(3-Chloro-phenyl)-2H-pyrazol-3-yl]-1-[4-(2,2,2-trifluoro-ethoxy)-phenyl]-1H-pyridazin-4-one], 0.003 µM; as for `O=c1ccn(-c2ccc(OCC(F)(F)F)cc2)nc1-c1ccnn1-c1ccnc2ccccc12` [Example 259, 3-(2-Quinolin-4-yl-2H-pyrazol-3-yl)-1-[4-(2,2,2-trifluoro-ethoxy)-phenyl]-1H-pyridazin-4-one], 0.001 µM.
